Data: the CheMixHub viscosity set
Where “and” joins values, the source holds several entries; their conditions need not be identical. Identical values can stand only once.

Assay: xn = mol fraction of the nth substance listed

CCCC1c2cc(c(O)c(/N=N/c3cccc(C(=O)O)c3)c2O)C(CCC)c2cc(c(O)c(/N=N/c3cccc(C(=O)O)c3)c2O)C(CCC)c2cc(c(O)c(/N=N/c3cccc(C(=O)O)c3)c2O)C(CCC)c2cc1c(O)c(/N=N/c1cccc(C(=O)O)c1)c2O (stereo not drawn) + CS(C)=O
viscosity [mPa·s], 101 kPa
Settings | 293.15 K | 298.15 K | 303.15 K | 308.15 K | 313.15 K
x1 = 0.000457 | 2.314 | 2.072 | 1.87 | 1.698 | 1.555
x1 = 0.000544 | 2.345 | 2.1 | 1.893 | 1.724 | 1.579
x1 = 0.000616 | 2.369 | 2.124 | 1.907 | 1.737 | 1.597
x1 = 0.000708 | 2.391 | 2.143 | 1.931 | 1.756 | 1.607
x1 = 0.0008532 | 2.425 | 2.167 | 1.952 | 1.779 | 1.625
x1 = 0.001009 | 2.471 | 2.209 | 1.991 | 1.812 | 1.651
x1 = 0.001122 | 2.52 | 2.25 | 2.024 | 1.838 | 1.68
x1 = 0.001351 | 2.556 | 2.284 | 2.045 | 1.858 | 1.695
x1 = 0.001491 | 2.633 | 2.346 | 2.104 | 1.905 | 1.739
x1 = 0.001636 | 2.678 | 2.38 | 2.138 | 1.934 | 1.764
x1 = 0.001789 | 2.724 | 2.43 | 2.176 | 1.967 | 1.79

Oc1ccccc1Cl + CO
Settings | viscosity [mPa·s]
303.15 K, 101 kPa, x1 = 0.2447 | 1.911

[Cl-].[Cl-].[Mn+2] + O
Settings | viscosity [mPa·s]
298.15 K, 101.33 kPa, x1 = 0.09931 | 8.35

C=COC(C)=O + Cc1ccccc1C
viscosity [mPa·s], 101 kPa
Settings | x1 = 0.1492 | x1 = 0.2538 | x1 = 0.3604 | x1 = 0.4517 | x1 = 0.5641 | x1 = 0.6689 | x1 = 0.7705 | x1 = 0.8616 | x1 = 0.9508
303.15 K | 0.632 | 0.594 | 0.558 | 0.529 | 0.494 | 0.463 | 0.435 | 0.413 | 0.394
313.15 K | 0.57 | 0.537 | 0.505 | 0.478 | 0.446 | 0.417 | 0.391 | 0.37 | 0.353

CCCN + COCCOCCO
298.15 K, 101 kPa
Settings | viscosity [mPa·s]
x2 = 0.0255 | 0.399
x2 = 0.0563 | 0.444
x2 = 0.0879 | 0.493
x2 = 0.1249 | 0.562
x2 = 0.1605 | 0.634
x2 = 0.2036 | 0.735
x2 = 0.2453 | 0.842
x2 = 0.2996 | 1.01
x2 = 0.3405 | 1.159
x2 = 0.3854 | 1.334
x2 = 0.4144 | 1.455
x2 = 0.4488 | 1.601
x2 = 0.4769 | 1.726
x2 = 0.5252 | 1.953
x2 = 0.5736 | 2.163
x2 = 0.6235 | 2.386
x2 = 0.6581 | 2.523
x2 = 0.7072 | 2.718
x2 = 0.7563 | 2.892
x2 = 0.7974 | 3.02
x2 = 0.8476 | 3.165
x2 = 0.8779 | 3.225
x2 = 0.9088 | 3.297
x2 = 0.9387 | 3.351
x2 = 0.9526 | 3.375

CC(C)c1ccccc1 + CC(C)(C)O
viscosity [mPa·s], 101 kPa
Settings | x2 = 0.0995 | x2 = 0.2007 | x2 = 0.3001 | x2 = 0.3998 | x2 = 0.5009 | x2 = 0.6007 | x2 = 0.7002 | x2 = 0.8005 | x2 = 0.9002
303.15 K | 0.6893 | 0.7128 | 0.7481 | 0.7954 | 0.8754 | 0.9692 | 1.129 | 1.415 | 1.874
308.15 K | 0.6458 | 0.6665 | 0.6941 | 0.7344 | 0.8007 | 0.8782 | 1.007 | 1.232 | 1.578
313.15 K | 0.6059 | 0.6215 | 0.6451 | 0.6782 | 0.7352 | 0.798 | 0.9019 | 1.08 | 1.343
318.15 K | 0.5703 | 0.5814 | 0.6002 | 0.6279 | 0.6742 | 0.7269 | 0.8117 | 0.9531 | 1.153
323.15 K | 0.537 | 0.5452 | 0.5604 | 0.5835 | 0.6218 | 0.6649 | 0.7349 | 0.8485 | 1.001

CC(C)c1ccccc1 + CCCCO
viscosity [mPa·s], 101 kPa
Settings | 298.15 K | 303.15 K | 308.15 K | 313.15 K | 318.15 K | 323.15 K
x1 = 0.0989 | 2.069 | – | 1.657 | – | – | –
x1 = 0.1844 | 1.723 | – | 1.398 | – | – | –
x1 = 0.2877 | 1.417 | – | 1.135 | – | – | –
x1 = 0.3941 | 1.188 | – | 0.9456 | – | – | –
x1 = 0.5189 | 1.001 | – | 0.8025 | – | – | –
x1 = 0.6544 | 0.8693 | – | 0.7291 | – | – | –
x1 = 0.796 | 0.7776 | – | 0.7157 | – | – | –
x2 = 0.1001 | – | 0.6982 | 0.6545 | 0.6143 | 0.5795 | 0.5481
x2 = 0.1998 | – | 0.7295 | 0.6815 | 0.6366 | 0.5969 | 0.5613
x2 = 0.3007 | – | 0.7788 | 0.7225 | 0.6725 | 0.6285 | 0.5885
x2 = 0.3997 | – | 0.8423 | 0.7784 | 0.7209 | 0.6696 | 0.6249
x2 = 0.4999 | – | 0.9355 | 0.8588 | 0.7901 | 0.7288 | 0.6767
x2 = 0.6 | – | 1.068 | 0.9725 | 0.8867 | 0.8131 | 0.7485
x2 = 0.6992 | – | 1.252 | 1.129 | 1.022 | 0.9275 | 0.848
x2 = 0.7999 | – | 1.474 | 1.323 | 1.187 | 1.068 | 0.9682
x2 = 0.9006 | – | 1.837 | 1.629 | 1.452 | 1.298 | 1.168

Oc1ccccc1Cl + CN(C)C=O
Settings | viscosity [mPa·s]
303.15 K, 101 kPa, x1 = 0.3286 | 3.443

CCCCOC(C)=O + O
303.15 K, 101 kPa
Settings | viscosity [mPa·s]
x2 = 0.0201 | 0.64
x2 = 0.04 | 0.641
x2 = 0.0599 | 0.639

Oc1ccccc1Cl + CCO
Settings | viscosity [mPa·s]
298.15 K, 101 kPa, x1 = 0.5 | 1.452

CCCCCCCC(=O)O + CCCCCCCCCCCC(=O)O
100 kPa, x2 = 0.25
Settings | viscosity [mPa·s]
293.15 K | 8.223
298.15 K | 7.085
303.15 K | 6.158
308.15 K | 5.394
313.15 K | 4.759
318.15 K | 4.227
323.15 K | 3.777

CCC[n+]1ccccc1.F[B-](F)(F)F + CO
101 kPa
Settings | viscosity [mPa·s]
303.15 K, x1 = 0.8956 | 59.95
323.15 K, x1 = 0.3918 | 4.475

CCCN + CC(C)(C)O
298.15 K, 101 kPa
Settings | viscosity [mPa·s]
x2 = 0.0967 | 0.512
x2 = 0.2039 | 0.727
x2 = 0.3012 | 0.969
x2 = 0.4 | 1.263
x2 = 0.4992 | 1.614
x2 = 0.5874 | 1.975
x2 = 0.6813 | 2.415
x2 = 0.7999 | 3.09
x2 = 0.9183 | 3.806

CCCCOC(C)=O + CCCCCO
viscosity [mPa·s], 101 kPa
Settings | x1 = 0.0963 | x1 = 0.2032 | x1 = 0.2987 | x1 = 0.4058 | x1 = 0.4868 | x1 = 0.5981 | x1 = 0.7048 | x1 = 0.7976 | x1 = 0.8954
298.15 K | 2.974 | 2.512 | 2.15 | 1.797 | 1.561 | 1.284 | 1.059 | 0.907 | 0.769
303.15 K | 2.593 | 2.191 | 1.886 | 1.573 | 1.37 | 1.14 | 0.963 | 0.846 | 0.723
308.15 K | 2.287 | 1.933 | 1.669 | 1.396 | 1.223 | 1.025 | 0.875 | 0.776 | 0.678
313.15 K | 2.018 | 1.714 | 1.483 | 1.261 | 1.107 | 0.941 | 0.809 | 0.717 | 0.639

Oc1ccccc1Cl + CC(C)CO
Settings | viscosity [mPa·s]
303.15 K, 101 kPa, x1 = 0.3796 | 5.333

CCCN + C=C(C)C(=O)OC
303.15 K, 101 kPa
Settings | viscosity [mPa·s]
x2 = 0.1506 | 0.382
x2 = 0.3776 | 0.4355
x2 = 0.5053 | 0.4623
x2 = 0.6058 | 0.4809
x2 = 0.8285 | 0.5081

CCCCCCCC[N+](C)(C)CCOCCO.Cc1cc(Cl)ccc1OCC(=O)[O-] + CCCCCCCC[N+](C)(C)CCOCCO.COc1c(Cl)ccc(Cl)c1C(=O)[O-]
100 kPa, x1 = 0.58
Settings | viscosity
293.15 K | 12650 mPa·s and 12650 mPa·s
303.15 K | 4260 mPa·s
313.15 K | 1780 mPa·s
323.15 K | 831.5 mPa·s

Oc1ccccc1Cl + CCN(CC)c1ccccc1
viscosity [mPa·s], 101 kPa
Settings | x1 = 0.1 | x1 = 0.2015 | x1 = 0.3033 | x1 = 0.4011 | x1 = 0.497 | x1 = 0.6026 | x1 = 0.7 | x1 = 0.7988 | x1 = 0.9003
298 K | 2.116 | 2.366 | 2.722 | 3.122 | 3.629 | 4.195 | 4.548 | 4.623 | 4.12
303 K | 1.858 | 2.053 | 2.31 | 2.589 | 2.933 | 3.337 | 3.533 | 3.605 | 3.32
308 K | 1.668 | 1.818 | 2.013 | 2.192 | 2.432 | 2.741 | 2.89 | 2.938 | 2.769
313 K | 1.507 | 1.626 | 1.775 | 1.94 | 2.12 | 2.318 | 2.42 | 2.463 | 2.361
318 K | 1.37 | 1.47 | 1.641 | 1.701 | 1.841 | 1.998 | 2.086 | 2.129 | 2.135
